Assay results taken from the CheMixHub ionic liquid set.

Assay: xn = mol fraction of the nth substance listed
Conditions: 100 kPa

CCCCCCCC[n+]1ccccc1.[Br-] + CC(C)[C@H](NC(=O)CN)C(=O)O + O
Conditions	electrical conductivity [S/m]
298.15 K, x2 = 0.001788, x1 = 0.005721	1.59
298.15 K, x2 = 0.001788, x1 = 0.00598	1.64
298.15 K, x2 = 0.001789, x1 = 0.00542	1.54
298.15 K, x2 = 0.00179, x1 = 0.004736	1.42
298.15 K, x2 = 0.00179, x1 = 0.005091	1.49
298.15 K, x2 = 0.001791, x1 = 0.004349	1.35
298.15 K, x2 = 0.001792, x1 = 0.003932	1.27
298.15 K, x2 = 0.001793, x1 = 0.002972	1.03
298.15 K, x2 = 0.001793, x1 = 0.003476	1.17
298.15 K, x2 = 0.001794, x1 = 0.002419	0.883
298.15 K, x2 = 0.001796, x1 = 0.001458	0.586
298.15 K, x2 = 0.001796, x1 = 0.001805	0.699
298.15 K, x2 = 0.001797, x1 = 0.0007114	0.326
298.15 K, x2 = 0.001797, x1 = 0.001099	0.462
303.15 K, x2 = 0.0008946, x1 = 0.006155	1.91
303.15 K, x2 = 0.0008949, x1 = 0.005878	1.86
303.15 K, x2 = 0.0008952, x1 = 0.005571	1.8
303.15 K, x2 = 0.0008955, x1 = 0.005244	1.74
303.15 K, x2 = 0.0008958, x1 = 0.004883	1.67
303.15 K, x2 = 0.0008961, x1 = 0.004503	1.6
303.15 K, x2 = 0.0008965, x1 = 0.004075	1.49
303.15 K, x2 = 0.0008969, x1 = 0.003606	1.38
303.15 K, x2 = 0.0008974, x1 = 0.003092	1.22
303.15 K, x2 = 0.0008979, x1 = 0.002527	1.05
303.15 K, x2 = 0.0008985, x1 = 0.001896	0.834
303.15 K, x2 = 0.0008988, x1 = 0.001509	0.689
303.15 K, x2 = 0.0008992, x1 = 0.001132	0.543
303.15 K, x2 = 0.0008995, x1 = 0.0007259	0.385
303.15 K, x2 = 0.001788, x1 = 0.005719	1.79
303.15 K, x2 = 0.001788, x1 = 0.005978	1.84
303.15 K, x2 = 0.001789, x1 = 0.005417	1.73
303.15 K, x2 = 0.00179, x1 = 0.004734	1.6
303.15 K, x2 = 0.00179, x1 = 0.005087	1.67
303.15 K, x2 = 0.001791, x1 = 0.004349	1.52
303.15 K, x2 = 0.001792, x1 = 0.00393	1.42
303.15 K, x2 = 0.001793, x1 = 0.002972	1.16
303.15 K, x2 = 0.001793, x1 = 0.003474	1.3
303.15 K, x2 = 0.001794, x1 = 0.002419	0.983
303.15 K, x2 = 0.001796, x1 = 0.001458	0.652
303.15 K, x2 = 0.001796, x1 = 0.001805	0.778
303.15 K, x2 = 0.001797, x1 = 0.0007114	0.361
303.15 K, x2 = 0.001797, x1 = 0.001099	0.512
308.15 K, x2 = 0.0008946, x1 = 0.006153	2.17
308.15 K, x2 = 0.0008949, x1 = 0.005877	2.11
308.15 K, x2 = 0.0008952, x1 = 0.00557	2.04
308.15 K, x2 = 0.0008955, x1 = 0.005243	1.95
308.15 K, x2 = 0.0008958, x1 = 0.004881	1.86
308.15 K, x2 = 0.0008961, x1 = 0.004503	1.77
308.15 K, x2 = 0.0008965, x1 = 0.004075	1.66
308.15 K, x2 = 0.0008969, x1 = 0.003606	1.52
308.15 K, x2 = 0.0008974, x1 = 0.003092	1.35
308.15 K, x2 = 0.0008979, x1 = 0.002525	1.15
308.15 K, x2 = 0.0008985, x1 = 0.001896	0.905
308.15 K, x2 = 0.0008988, x1 = 0.001509	0.753
308.15 K, x2 = 0.0008992, x1 = 0.001132	0.6
308.15 K, x2 = 0.0008995, x1 = 0.0007259	0.446
308.15 K, x2 = 0.001788, x1 = 0.005717	2
308.15 K, x2 = 0.001788, x1 = 0.005974	2.06
308.15 K, x2 = 0.001789, x1 = 0.005415	1.94
308.15 K, x2 = 0.00179, x1 = 0.004732	1.78
308.15 K, x2 = 0.00179, x1 = 0.005087	1.86
308.15 K, x2 = 0.001791, x1 = 0.004348	1.68
308.15 K, x2 = 0.001792, x1 = 0.00393	1.58
308.15 K, x2 = 0.001793, x1 = 0.002972	1.28
308.15 K, x2 = 0.001793, x1 = 0.003474	1.44
308.15 K, x2 = 0.001794, x1 = 0.002419	1.09
308.15 K, x2 = 0.001796, x1 = 0.001456	0.714
308.15 K, x2 = 0.001796, x1 = 0.001805	0.853
308.15 K, x2 = 0.001797, x1 = 0.0007114	0.409
308.15 K, x2 = 0.001797, x1 = 0.001099	0.567
